Measured values reported in PMC4833932, “Cytotoxicity and cell cycle arrest induced by andrographolide lead to programmed cell death of MDA-MB-231 breast cancer cell line” (Journal of Biomedical Science, 2016).

Experiments:
[1] = system: MDA-MB-231 cells; test: Cell proliferation assay (trypan blue); type: cell-based, human; details: 30 μM, 48 h
Procedure: MDA-MB-231 cells harvested from exponential growth phase were seeded at a density of 1 × 10^4/well in a 24-well culture plate. After 24 h, the cells were treated with varying concentrations of andrographolide (15, 30, 45 and 60 μM) or DMSO (0.1 %, vehicle control) for 12, 24, 36 and 48 h. After treatment, cells were harvested by trypsinization, stained with 0.4 % trypan blue and counted in a hemocytometer. Cell proliferation index PI, was calculated as PI = Ct/C0; where Ct = cell count at time t and C0 = cell count at the time of treatment.

[2] = system: cytochrome c; test: Western blot of cytosolic and mitochondrial fractions of MDA-MB-231 cells; type: cell-based, human; details: 30 μM, 48 h
Procedure: Cells were treated with andrographolide (30 μM) for 48 h and mitochondrial as well as cytosolic fractions were obtained with a mitochondria isolation kit (Pierce, Rockford, USA). The mitochondrial pellet was re-suspended in sample buffer for SDS-gel electrophoresis and analyzed by Western blot using cytochrome c antibody. COX IV and β-actin were used as loading controls for the mitochondrial fraction and cytosolic fraction respectively. Cytosolic fractions were also Western blotted for studying cytochrome c expression.
Cells from control regime and andrographolide treatment (30 μM, 48 h) were used for Western blot. After centrifugation, cell pellets were lysed in RIPA buffer containing protease and phosphatase inhibitors (Roche, Germany). Each cell lysate was used for protein assay with Bio-Rad protein assay kit (Bio-Rad, USA). A protein sample of 50 μg was electrophoresed in a 12 % SDS-PAGE. Proteins were electro-transferred from the gel onto a nitrocellulose membrane (Amersham Biosciences, UK). […] The protein bands were visualized by incubating the membrane with diaminobenzidine/hydrogen peroxide (Sigma-Aldrich) for color reaction. β-Actin and COX IV were also detected as loading controls.

[3] = system: caspase-9; test: Caspase activity assay in MCF-7 cells; type: cell-based, human; details: MCF-7, 0-80 μM, 24 h
Procedure: MDA-MB-231 cells (1 × 10^5 cells per ml) were incubated with different concentrations of andrographolide (0, 15, 30, 45 and 60 μM) for 24 h and then centrifuged to detect caspase-3 and caspase-9 activation using caspase fluoremetric protease assay kit following manufacturer’s instructions. Briefly, cells were lysed in RIPA buffer supplemented with protease inhibitor cocktail and 10 μl lysate were diluted with 10 μl substrate buffer (1:1) containing 100 μM each of fluorogenic substrate, DEVD-AFC and LEHD-AFC for caspase-3 and caspase-9 respectively, and was then incubated for 90 min at 37 °C. Reactions were stopped using 0.2 mM sodium phosphate buffer (pH 7.5) and fluorescence was quantified by a spectrofluorometer (excitation, 405 nm; emission, 505 nm). Experiment was also performed using MCF-7 cells.

[4] = system: platelets; parameters: method as in PMID 21822619; dose or concentration left out as unconfirmed; details: cited from earlier work

With `C=C1CC[C@@H]2[C@](C)(CO)[C@H](O)CC[C@@]2(C)[C@@H]1C/C=C1/C(=O)OC[C@H]1O` [andrographolide] the cell death [1] was ~ 50%, the “cytosolic cytochrome c expression, increase” value ([2]; cytosolic fraction) was 7.13 ± 1.17 fold and the “cytochrome c in the mitochondrial fraction, decrease” value ([2]; mitochondrial fraction) was 1.92 ± 0.05 fold. For the same molecule, the “caspase-9 (initiator caspase) activation” value [3] was “activation in a dose-dependent manner” and the “cytotoxic effect on platelets” value [4] was “no cytotoxic effect”.
